One may read the IC50 as the concentration needed to halve the response being measured.

The results in this text go back to patent publication US20030083271A1, “Topoisomerase I selective cytotoxic sugar derivatives of indolopyrrolocarbazoles” (priority 2001, published 2003).

Series [1] has as its system P388 murine leukemia cells. Kind of series: In vitro cell-based cytotoxicity, parental P388 cells. Particulars: Mus musculus, 72 h, median cytotoxic concentration, 3 days continuous exposure. Put shortly:
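P388 cells plated at 8,000 cells/well, compounds serially diluted 24 h later and incubated 72 h at 37° C. Viability by MTS (333 μg/ml final) with phenazine methosulfate (25 μM final), absorbance at 492 nm; IC50 is concentration reducing absorbance to 50% of untreated control.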

For a further series, the system named is HT-29 colon carcinoma. The series is described as follows: In vivo antitumor activity, HT-29 xenograft. The following applies: for LCK (gross log cell kill): HT29 sc xenograft in nude mice, at optimal or maximum tolerated dose, CPT-11 run as comparator in same experiment; for MTD (optimal or maximum tolerated dose level tested): HT29 xenograft experiment, nude mice. The arrangement: species or system Balb/c athymic (nude) female mice. On the procedure:
(§1) Compounds: Examples of this invention were administered in an appropriate vehicle such as cremophor/ethanol/water (10%/10%/80%), in normal saline, water/carboxymethylcellulose vehicle.
(§2) All compounds were tested at several dose levels, with attempts each time to achieve their maximum tolerated dose (MTD). […] The optimal dose (OD) was the dose producing the best therapeutic effect, and was usually, but not always, synonymous with the MTD.
(§3) Tumors: Human tumors (HCT-116 and HT-29 colon carcinomas) were grown as xenografts in Balb/c athymic (nude) female mice. Antitumor assays. All tumors were implanted subcutaneously (sc) as 3-4mm fragments using a 13 gauge trochar. There were generally eight mice per treatment and control group. When treatment was delayed until tumors had obtained a certain size (weight), referred to as a staged tumor experiment (expt.), tumor-bearing mice were selected so that their tumors fell within a limited range of sizes for the particular expt.
(§4) Tumors were measured by calipers, and tumor weight calculated by the formula length (mm) times (×) width (mm)^2/2=tumor weight (mg). The median time (in days) to reach a predetermined tumor target size (for example, 500 mg) for untreated, control (C) mice relative to the time to reach the same target size for treated (T) mice, was calculated as a T-C value. T-C values were divided by the tumor volume doubling time (TVDT), and multiplied by 3.32, to yield a gross log cell kill (LCK) value, [i.e., (T-C)/TVDT×3.32=LCK].
(§5) A mouse was considered cured if there was no palpable tumor after a period of time equal to 10×TVDT post-reatment (Rx).

In the next series the test system is HCT-116 colon carcinoma. Kind of series: In vivo antitumor activity, HCT-116 xenograft. The arrangement: species or system Balb/c athymic (nude) female mice. The following applies: for LCK (gross log cell kill): HT116 sc xenograft in nude mice, at optimal or maximum tolerated dose, CPT-11 run as comparator in same experiment; for MTD (optimal or maximum tolerated dose level tested): HT116 xenograft experiment, nude mice. On the procedure: as §1, §2, §3, §4, §5

Structures are written as SMILES. Marks after values point to notes of the source that are not given here.

As to `O=C1NC(=O)c2c1c1c3cc(F)c(F)cc3sc1c1c2c2cc(F)c(F)cc2n1[C@@H]1O[C@H](CF)C[C@H](O)[C@H]1O` [Example 9, 12-[4,6-Dideoxy-6-fluoro-β-D-glucopyranosyl]-2,3,9,10-tetrafluoro-5H, 13H-benzo[b]thienyl[2,3-a]pyrrolo[3,4-c]carbazole-5,7(6H)-dione], in series [1], the IC50 was determined as 35 nM. In the series on HT-29 colon carcinoma, the “LCK (gross log cell kill)” value is on record as above 1.4 and the “MTD (optimal or maximum tolerated dose level tested)” value (shortened to “MTD”) was above 22 mpkpi. In the series with HCT-116 colon carcinoma, the “LCK (gross log cell kill)” value is recorded as above 3.4 and the “MTD” value was above 22 mpkpi.
As for `O=C1NC(=O)c2c1c1c3cc(F)c(F)cc3sc1c1c2c2cc(F)c(F)cc2n1[C@@H]1O[C@H](CO)[C@@H](F)[C@H](O)[C@H]1O` [Example 33, 12-[4-Deoxy-4-fluoro-β-D-glucopyranosyl]-2,3,9,10-tetrafluoro-5H,13H-benzo[b]thienyl[2,3-a]pyrrolo[3,4-c]carbazole-5,7(6H)-dione], in series [1], the IC50 was below 3 nM. Moreover, in the series on HT-29 colon carcinoma, the “LCK (gross log cell kill)” value is given as >2.3^b and the “MTD” value is on record as 11 mpkpi. For the same compound, in the series on HCT-116 colon carcinoma, the “LCK (gross log cell kill)” value stood at 2.3 and the “MTD” value was determined as 10 mpkpi.
Turning to `O=C1NC(=O)c2c1c1c3cc(F)ccc3[nH]c1c1c2c2cc(F)ccc2n1[C@@H]1O[C@H](CO)[C@@H](F)[C@H](O)[C@H]1O` [Example 24, 12-[4-Deoxy-4-fluoro-β-D-glucopyranosyl]-3,9-difluoro-12,13-dihydro-5H-indolo[2,3-a]pyrrolo[3,4-c]carbazole-5,7(6H)-dione], in series [1], the IC50 is 2 nM. In addition, in the series with HT-29 colon carcinoma, the “LCK (gross log cell kill)” value was determined as 2.1 and the “MTD” value turned out to be 15 mpkpi. In the series on HCT-116 colon carcinoma, the “LCK (gross log cell kill)” value stood at 1.3 and the “MTD” value was 10 mpkpi.
Regarding `O=C1NC(=O)c2c1c1c3cc(F)c(F)cc3sc1c1c2c2cc(F)c(F)cc2n1[C@@H]1O[C@H](CF)[C@@H](F)[C@H](O)[C@H]1O` [Example 26, 12-[4,6-Difluoro-4,6-dideoxy-β-D-glucopyranosyl]-2,3,9,10-tetrafluoro-5H, 13H-benzo[b]thienyl[2,3-a]pyrrolo[3,4-c]carbazole-5,7(6H)-dione], the IC50 in series [1] was found to be 11 nM. Moreover, in the series on HT-29 colon carcinoma, the “LCK (gross log cell kill)” value was 1.4 and the “MTD” value was above 9 mpkpi. In the series with HCT-116 colon carcinoma, the “LCK (gross log cell kill)” value is above 3.4 and the “MTD” value was above 9 mpkpi.
Take `O=C1NC(=O)c2c1c1c3cc(F)ccc3[nH]c1c1c2c2cc(F)ccc2n1[C@@H]1O[C@H](CF)[C@@H](F)[C@H](O)[C@H]1O` [Example 27]: the IC50 in series [1] turned out to be 4 nM. In the series with HT-29 colon carcinoma, the “LCK (gross log cell kill)” value is 1.9^a and the “MTD” value was 11 mpkpi. In the series on HCT-116 colon carcinoma, the “LCK (gross log cell kill)” value is given as >1.4^c and the “MTD” value stood at 8 mpkpi.
